Assays:
EphA2 = target: T1, EphA2 (UniProt Ref: P29317) (Homo sapiens, UniProt P29317); assay: EphA2 assay (Reaction Biology HotSpot radioactive kinase assay); assay type: biochemical; conditions: ATP 10 μM; read-out: EphA2 potency IC50
T1 construct: purchased Reaction Biology
Method in brief: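 Radiometric HotSpot assay measuring ^33P incorporation from [^33P]-γ-ATP into poly[Glu:Tyr] (4:1) (0.2 mg/mL) with 10 μM ATP. IC50 from serial 1/3 dilutions starting at 10 or 3 μM.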

EphA4 = target: T2, EphA4 (UniProt Ref: P54764) (Homo sapiens, UniProt P54764); assay: EphA4 assay (Reaction Biology HotSpot radioactive kinase assay); assay type: biochemical; conditions: EphA4 potency; ATP 10 μM
T2 construct: purchased Reaction Biology
T2 sequence (P54764 20-986): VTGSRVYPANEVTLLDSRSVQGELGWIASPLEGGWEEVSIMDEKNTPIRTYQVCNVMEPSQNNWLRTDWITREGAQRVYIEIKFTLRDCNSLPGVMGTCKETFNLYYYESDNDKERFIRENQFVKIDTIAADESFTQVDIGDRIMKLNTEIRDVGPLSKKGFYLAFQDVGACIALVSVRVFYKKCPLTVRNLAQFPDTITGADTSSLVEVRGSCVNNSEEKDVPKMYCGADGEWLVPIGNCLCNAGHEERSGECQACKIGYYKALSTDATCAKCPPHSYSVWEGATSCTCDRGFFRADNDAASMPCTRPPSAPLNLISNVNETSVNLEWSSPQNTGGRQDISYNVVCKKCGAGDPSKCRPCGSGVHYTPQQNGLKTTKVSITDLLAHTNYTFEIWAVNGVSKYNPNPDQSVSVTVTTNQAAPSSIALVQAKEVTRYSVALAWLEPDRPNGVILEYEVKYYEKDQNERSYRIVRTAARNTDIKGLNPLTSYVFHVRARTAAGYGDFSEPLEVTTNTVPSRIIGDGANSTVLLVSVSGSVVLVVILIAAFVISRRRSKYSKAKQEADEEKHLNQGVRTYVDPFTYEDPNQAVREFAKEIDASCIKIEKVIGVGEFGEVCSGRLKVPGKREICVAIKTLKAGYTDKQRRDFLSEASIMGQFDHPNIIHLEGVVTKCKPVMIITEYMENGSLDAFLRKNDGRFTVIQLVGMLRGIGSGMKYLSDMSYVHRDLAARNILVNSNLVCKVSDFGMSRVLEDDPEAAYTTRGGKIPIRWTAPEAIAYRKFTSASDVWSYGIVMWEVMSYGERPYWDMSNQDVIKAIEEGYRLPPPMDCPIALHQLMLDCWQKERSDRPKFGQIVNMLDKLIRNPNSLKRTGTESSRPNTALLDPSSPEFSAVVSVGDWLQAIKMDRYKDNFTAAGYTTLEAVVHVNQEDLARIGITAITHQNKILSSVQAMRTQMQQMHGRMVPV
Procedure: (§1) Inhibition of EphA4 (UniProt Ref: P54764) by a test compound is determined by a commercially available Reaction Biology proprietary nanoliter radioactive HotSpot^SM assay (Reaction Biology, One great valley parkway, Suite 2, Malvern Pa., 19355, USA). The principle of the assay consists of the measurement of incorporated ^33P into poly[Glu:Tyr] (4:1) (0.2 mg/mL) when the substrate is phosphorylated by the enzyme using [^33P]-γ-ATP and ATP (10 μM).
(§2) To determine the IC50, a serial dilution of compound is tested starting from 10 or 3 μM (highest dilution) with a 1/3 dilution.

EphB4 = target: T3, EphB4 (UniProt Ref: Q541P7) (Homo sapiens, UniProt P54760); assay: EphB4 assay (Reaction Biology HotSpot radioactive kinase assay); assay type: biochemical; conditions: ATP 10 μM; read-out: EphB4 potency IC50
T3 construct: purchased Reaction Biology
T3 sequence (P54760 16-987): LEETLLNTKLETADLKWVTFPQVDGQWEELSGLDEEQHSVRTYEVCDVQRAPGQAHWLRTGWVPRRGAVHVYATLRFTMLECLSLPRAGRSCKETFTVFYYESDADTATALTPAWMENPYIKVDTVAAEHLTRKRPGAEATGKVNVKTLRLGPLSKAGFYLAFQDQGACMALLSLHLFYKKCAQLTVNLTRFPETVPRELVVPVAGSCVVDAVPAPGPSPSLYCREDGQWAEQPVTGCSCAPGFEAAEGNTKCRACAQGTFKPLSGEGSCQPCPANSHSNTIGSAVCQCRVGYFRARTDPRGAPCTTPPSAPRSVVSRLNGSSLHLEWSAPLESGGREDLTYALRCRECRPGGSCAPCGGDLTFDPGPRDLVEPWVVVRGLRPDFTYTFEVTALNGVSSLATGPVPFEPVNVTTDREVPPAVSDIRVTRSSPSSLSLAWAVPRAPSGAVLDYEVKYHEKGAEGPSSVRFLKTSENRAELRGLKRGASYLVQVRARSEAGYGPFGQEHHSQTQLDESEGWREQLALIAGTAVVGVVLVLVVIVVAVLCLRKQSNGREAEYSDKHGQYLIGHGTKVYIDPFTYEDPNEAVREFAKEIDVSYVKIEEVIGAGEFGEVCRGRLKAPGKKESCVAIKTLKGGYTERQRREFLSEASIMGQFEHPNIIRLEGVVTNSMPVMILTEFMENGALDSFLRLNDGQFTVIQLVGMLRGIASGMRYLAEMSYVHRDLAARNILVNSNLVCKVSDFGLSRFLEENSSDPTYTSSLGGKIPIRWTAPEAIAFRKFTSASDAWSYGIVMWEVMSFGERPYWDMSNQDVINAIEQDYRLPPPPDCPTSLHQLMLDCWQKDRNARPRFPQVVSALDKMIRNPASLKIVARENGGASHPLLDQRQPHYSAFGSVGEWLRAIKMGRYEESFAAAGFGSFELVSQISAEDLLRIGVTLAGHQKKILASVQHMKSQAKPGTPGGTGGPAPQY
Procedure: as §1, with “EphB4” for “EphA4”, “Q541P7)” for “P54764)”
as §2

[1] = Pharmacokinetics in mice (exposure, AUC); assay type: in vivo; conditions: male, CD1, plasma; mouse, 30 mg/kg, po
Procedure: This study was performed with 42 naïve male CD1 mice (18-20 g, 4-5 weeks old). Mice are obtained from Janvier, Le Genest St Isle, France.
A controlled environment was maintained in the room with optimal conditions of approximately 15 air changes per hour, a temperature of 22±2 C, a relative humidity of 30-70% and a 12 hour light/12 hour dark cycle (nightlight during the night period).
Pelleted diet for rodents (UAR A04C-10) was used and was provided ad libitum. Before p.o. dosing, the animals are deprived of food for at least 12 hours before compound administration and 4 hours after administration. All animals had free access to tap water.
[…] The i.v. bolus administration is given with a dose volume of 5 mL/kg and the oral administration is given with a dose volume of 10 mL/kg. Actual dose volumes are based on the mean of 10 body weights.
The vehicle used to formulate compounds for oral administration is methylcellulose in water (0.5% in water)
From all animals approximately 500 μL blood samples are collected by intra-cardiac puncture under gaseous anesthesia and placed into tubes containing Li-heparin as anticoagulant. Blood samples are collected at various time points (i.v.: 0.05, 0.25, 0.5, 1, 3, 5 and 8 hours after dosing; p.o.: 0.25, 0.5, 1, 3, 5, 8 and 24 hours after dosing). Each mouse is sampled once and euthanized.
Blood is kept on ice. Within 1 hour after sampling, blood is centrifuged at 5,000 rpm for 10 min at 4° C. Immediately after centrifugation, the resulting plasma samples are collected into polypropylene tubes and are kept frozen at −20° C. pending bioanalysis.
Plasma samples are assayed by LC-MS/MS. Plasma proteins are precipitated with an excess of methanol containing the internal standard and the corresponding supernatant is injected on a C18 column. Analytes are eluted out the HPLC system by increasing the percentage of the organic mobile phase. An API4000 mass spectrometer (AB Sciex™) is used for the detection and quantification.
Pharmacokinetic parameters are calculated by non-compartmental analysis using WinNonlin® software (Pharsight, version 5.2).

T1 sequence (P29317 24-976): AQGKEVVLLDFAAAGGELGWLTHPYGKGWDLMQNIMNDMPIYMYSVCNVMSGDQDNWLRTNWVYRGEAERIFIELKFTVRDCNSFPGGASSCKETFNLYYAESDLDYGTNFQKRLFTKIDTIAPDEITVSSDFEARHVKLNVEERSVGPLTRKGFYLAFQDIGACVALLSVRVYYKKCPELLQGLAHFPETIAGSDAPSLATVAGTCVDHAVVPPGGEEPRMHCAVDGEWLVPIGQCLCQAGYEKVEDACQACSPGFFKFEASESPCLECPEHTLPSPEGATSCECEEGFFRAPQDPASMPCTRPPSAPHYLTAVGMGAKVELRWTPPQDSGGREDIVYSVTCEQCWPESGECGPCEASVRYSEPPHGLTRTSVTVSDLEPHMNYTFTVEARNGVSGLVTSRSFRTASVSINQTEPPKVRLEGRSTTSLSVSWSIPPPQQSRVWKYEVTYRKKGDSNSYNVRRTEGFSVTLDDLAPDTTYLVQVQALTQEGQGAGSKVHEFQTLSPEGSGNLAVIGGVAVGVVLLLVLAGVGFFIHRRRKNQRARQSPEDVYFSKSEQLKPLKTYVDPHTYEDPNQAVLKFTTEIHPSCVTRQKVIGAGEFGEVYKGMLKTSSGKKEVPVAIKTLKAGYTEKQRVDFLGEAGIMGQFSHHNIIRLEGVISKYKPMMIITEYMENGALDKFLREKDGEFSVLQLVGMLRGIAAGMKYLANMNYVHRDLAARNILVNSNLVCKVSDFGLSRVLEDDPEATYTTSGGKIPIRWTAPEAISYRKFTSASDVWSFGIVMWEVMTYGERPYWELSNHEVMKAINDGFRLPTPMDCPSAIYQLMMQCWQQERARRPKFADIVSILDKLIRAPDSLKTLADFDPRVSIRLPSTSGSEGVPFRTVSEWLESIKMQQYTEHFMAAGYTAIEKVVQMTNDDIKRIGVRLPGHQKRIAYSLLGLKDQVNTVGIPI

- IC50 (EphA2): 0.01 to 25 nM
- IC50 (EphA4): 50 to 100 nM
- IC50 (EphB4): 0.01 to 25 nM
- AUC [1]: 39000 ng·h/mL
SMILES: COc1cc(OC)cc(C(=O)Nc2ccc(C)c(-c3ccc4c([C@H](C)O)n[nH]c4n3)c2)c1 [Compound 47, N-{3-[3-((S)-1-Hydroxy-ethyl)-1H-pyrazolo[3,4-b]pyridin-6-yl]-4-methyl-phenyl}-3,5-dimethoxy-benzamide]

— US9062051B2, “Compounds and pharmaceutical compositions thereof for the treatment of proliferative disorders” (GALAPAGOS NV, priority 2014, dated 2015)
